Reference: the NIST ThermoML archive (doi:10.1016/j.fluid.2013.05.019)
Numbers after ± are expanded uncertainties.

Columns and labels:
[1] = Boiling temperature at pressure P; conditions: 101 kPa; Liquid; Ebulliometric method (Recirculating still)
[2] = Liquid, Manometric method

C=C(C)C(C)C [2,3-dimethyl-1-butene]
Boiling temperature at pressure P [1]: 55.73 ± 0.04 °C

CC(C)=C(C)C [2,3-dimethyl-2-butene]
Boiling temperature at pressure P [1]: 73.00 ± 0.04 °C

Cc1ccsc1 [3-methylthiophene]
Boiling temperature at pressure P [1]: 115.20 ± 0.04 °C

CCCCCCC [heptane]
Boiling temperature at pressure P [1]: 98.49 ± 0.04 °C
vapor or sublimation pressure ([2]; 370.27 K): 97.43 ± 0.32 kPa
vapor or sublimation pressure ([2]; 370.74 K): 98.52 ± 0.33 kPa
vapor or sublimation pressure ([2]; 370.93 K): 99.39 ± 0.34 kPa
vapor or sublimation pressure ([2]; 371.13 K): 99.78 ± 0.33 kPa
vapor or sublimation pressure ([2]; 371.52 K): 101.07 ± 0.34 kPa
vapor or sublimation pressure ([2]; 372.25 K): 103.43 ± 0.32 kPa
vapor or sublimation pressure ([2]; 372.36 K): 103.56 ± 0.35 kPa
vapor or sublimation pressure ([2]; 372.56 K): 104.41 ± 0.34 kPa
vapor or sublimation pressure ([2]; 372.76 K): 104.67 ± 0.35 kPa
vapor or sublimation pressure ([2]; 372.97 K): 105.83 ± 0.36 kPa
vapor or sublimation pressure ([2]; 373.17 K): 106.29 ± 0.34 kPa
vapor or sublimation pressure ([2]; 373.48 K): 107.02 ± 0.34 kPa

c1ccsc1 [thiophene]
Boiling temperature at pressure P [1]: 84.27 ± 0.04 °C
